The record followed here is US12427143B2, “Pharmaceutical composition for treating or preventing aging or age-related diseases” (INU RESEARCH & BUSINESS FOUNDATION, priority 2021, dated 2025).

Positions count from the first letter of the chain named.

Assay [1] relates to senescent HDF. The assay is described as follows: Autophagy level (Cyto-ID flow cytometry). To be noted: HDF treated with compound. In kind it is cell-based, human. The procedure: (§1) FIG. 5 depicts the result of recovery of mitochondria based on the increased production of ATP. (A and B) Flow cytometric analysis of mitochondrial ROS and mitochondrial mass analysis using Mito tracker Green and MitoSOX; (C and D) measurement of non-glycotic glycolysis level and glycotic glycolysis level; (E) flow cytometry analysis of autophagosome level using CYTO-ID Green assay.
Cells were incubated in medium containing 20 μM chloroquine (CQ; C6628, Sigma-Aldrich). At 24 h after incubation, cells were further stained with Cyto-ID staining solution and 50 nM LTDR (ENZ-51031-0050; ENZO, Lausen, Switzeland) for 30 min and prepared for FACS analysis. To measure background autofluorescence, cells were incubated in medium without dye. Fluorescence from Cyto-ID was normalized with fluorescence from LTDR. Autophagic flux was calculated using the following equation: ΔMFI Cyto-ID=MFI Cyto-ID (+CQ)/MFI Cyto-ID (−CQ).
(§2) The capability of removing organelles having dysfunction in senescent cells is deteriorated. Recovery of autophagy prevents accumulation of dysfunctional mitochondria and resulting in signs of senescence recovery. Mitochondrial mass and autophagy were measured for identifying the function. Mitochondrial mass decreased in HDF treated with KB1541(FIG. 5B). Moreover, autophagy level increased in HDF treated with KB1541(FIG. 5C).
In general terms: Flow cytometry measures light scatter and fluorescence of single cells or particles in a stream.

The test system of assay [2] is senescent HDF. The assay is described as follows: Measurement of cellular ATP levels (oxphos and glycolysis portion). It is filed as cell-based, human. As to conditions: versus senescent HDF. Here is the method: Cells were incubated in medium with or without 20 μM oligomycin for 24 h and then lysed with lysis buffer. ATP content was measured using a ViaLight Plus Kit (LT07-221; Lonza, Basel, Switzerland) according to the manufacturer's instructions. DNA content was measured using AccuBlue broad range dsDNA quantitation kit (31007; Biotium, Fremont, CA, USA). For measurements of relative ATP content, the luminescence of each sample was normalized to the DNA content.
The inventors studied the changes in ATP production when assembling the ATP subunit based on the result of FIG. 4B. Oxphos portion was measured for identifying ATP resulting from oxidative phosphorylation in mitochondria cristae (FIG. 4C).
Moreover, glycolysis portion was measured for assessing the amount of ATP during glycolysis (FIG. 4D).

A further assay concerns senescent HDF cells. The assay is described as follows: Compound screening: cell proliferation of senescent fibroblasts (GelGreen fluorescence). To be noted: 27 drugs at 4 μM, 12 days, senescent HDF 1,000 cells per well. In kind it is cell-based, human. Here is the method: FIG. 1 depicts the results of potential target screening for recovering senescence. Each of compounds was treated to a 96 well plate seeded with 1000 senescent cells (4 μM). After incubation for 12 days, the cells were stained with Gel green solution (1:1,000 in D.W.). Cell number was determined via fluorescence measurement using fluorescence microplate reader (excitation/emission 485 nm/535 nm).
Senescent fibroblasts were grown in 96-well plates at a density of 1,000 cells per well. Components from the library were diluted to a final concentration of 4 μM and added to the wells every 4 days. 12 days after drug treatment, cells were washed twice with phosphate-buffered saline (PBS) and lysed in 50 μl of 0.2% SDS. The plates were incubated at 37° C. for 1 h. GelGreen® Nucleic Acid Gel Stain (150 μl) (1:1,000 in DW; 41005; Biotium, Fremont, CA, USA) was added to the wells. Cell number was determined by measuring fluorescence intensity with VICTOR Multilabel Plate Reader (2030-0050; PerkinElmer, Waltham, MA, USA). The mean and standard deviation from six replicates were determined for each of experimental groups.
Cellular senescence is characterized by cell cycle arrest, and the inventors identified a compound recovering cell cycle arrest with additional anti-senescence effects. […] Relative cell proliferation was measured in terms of the senescent HDF. […]

Assay [3] deals with senescent HDF. The assay is described as follows: Mitochondrial mass by MitoTracker green flow cytometry. In kind it is cell-based, human. To be noted: HDF treated with compound. The procedure:
as §1
(§3) For quantification of mitochondrial ROS, the cells were incubated in medium containing 5 μM MitoSOX (M36008; Life Technologies, Carlsbad, CA, USA) for 30 min at 37° C. For quantification of mitochondrial mass, the cells were incubated in medium containing 50 nM MitoTracker green (M22426; Life Technologies) for 30 min at 37° C. After staining, for the purpose of measuring mitochondrial membrane potential, cells were prepared for FACS analysis.
as §2

Assay [4] has as its system senescent HDF. The assay is described as follows: Mitochondrial ROS by MitoSOX flow cytometry. It is filed as cell-based, human. To be noted: versus senescent HDF. Here is the method:
as §1, §3
Reactive oxygen species (ROS) was identified and measured, which damages homeostasis and metabolism of normal mitochondria.

Assay [5] deals with T1, Myc-14-3-3 zeta/delta(WT) / ATP synthase alpha and beta (Homo sapiens, UniProt P63104).
T1 construct: expressed in transfected cells; host or cells: HEK293T (CRL-11268; ATCC)
T1 sequence (P63104 1-245): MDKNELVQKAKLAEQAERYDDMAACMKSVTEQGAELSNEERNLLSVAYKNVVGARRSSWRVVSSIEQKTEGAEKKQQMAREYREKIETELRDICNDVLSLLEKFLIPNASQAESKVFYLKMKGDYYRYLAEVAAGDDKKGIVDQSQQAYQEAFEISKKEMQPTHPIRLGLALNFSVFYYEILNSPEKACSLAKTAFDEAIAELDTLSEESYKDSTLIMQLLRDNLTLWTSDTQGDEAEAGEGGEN
Kind of assay: Co-immunoprecipitation of ATP synthase alpha and beta with Myc-14-3-3 zeta/delta(WT). As to conditions: HEK293T, 4 μM. It is filed as cell-based. The procedure: (§4) pCMV-Myc-14-3-3 zeta/delta(WT) plasmid and pCMV-Myc-14-3-3 zeta/delta(S58A) plasmid were transfected with HEK293T(CRL-11268; ATCC). […] The treated cells were digested with 0.1% NP-40 cell lysis buffer to destroy cells, and IP (immunoprecipitation) of MIC60 subunit was performed using AccuNanoBeadm Streptavidin Magnetic Nanobeads (TA-1015-1; Bioneer, Daejeon, Korea). IP of 14-3-3 zeta/delta(WT) and 14-3-3 zeta/delta(S58A) were performed using anti-Myc tag antibody.
(§5) The PCR fragment of 14-3-3 zeta/delta (WT) and 14-3-3 zeta/delta (S58A) were separately cloned into pCMV-Myc-puromycin. HEK293T (CRL-11268; ATCC) were transfected with Lipofectaminem 2000 Transfection Reagent (11668-019; Thermo Scientific), Selection was carried out with puromycin 3 μg/ml.
(§6) Therefore, the 58th serine region of 14-3-3 zeta/delta was mutated to alanine to investigate its function. Myc-tag 14-3-3 zeta/delta(WT) vector and 14-3-3 zeta/delta(S58A) vector were transfected and overexpressed with HEK293T. Additionally, their interactions with endogenous ATP synthase alpha and beta were confirmed by IP (FIG. 4B).
(§7) As a result, ATP synthase alpha and beta proteins, which interacted with Myc-14-3-3 zeta/delta(WT) were increased KB1541 was treated to HEK293T at a concentration of 4 μM (FIG. 5B).

In assay [6] the target is T2, Myc-14-3-3 zeta/delta (S58A) / ATP synthase alpha and beta (Homo sapiens, UniProt P63104, S58A).
T2 construct: expressed in transfected cells; host or cells: HEK293T (CRL-11268; ATCC)
T2 sequence (P63104 1-245 S58A): T1 sequence (P63104 1-245) with S58A
Kind of assay: Co-immunoprecipitation of ATP synthase alpha and beta with Myc-14-3-3 zeta/delta(S58A). In kind it is cell-based. As to conditions: HEK293T, performed in the same way (4 μM). The procedure:
as §4, §5, §6, §7

For assay [7], the system named is senescent HDF. Kind of assay: Seahorse analysis, ECAR (dependency of glycolysis). It is filed as cell-based, human. To be noted: HDF treated with compound, regardless of glucose.
From the text: as §1
The XFe24 flux analyzer (Seahorse Bioscience XFe24 Instrument) was used according to the manufacturer's protocol. Briefly, 5×10^4 cells were distributed into each well of an XFe24 cell-culture plate from the XF24 FluxPak (100850-001; Seahorse Bioscience, North Billerica, MA, USA) and then cultured in a 5% CO2 incubator at a temperature of 37° C. for 16 h. Next, the medium was replaced by XF Assay medium (102365-100; Seahorse Bioscience), which lacked glucose, and the cells were then cultured for another 1 h in the same incubator. The extracellular acidification rate (ECAR) was measured using an XF Glycolysis Stress Test kit (102194-100; Seahorse Bioscience). ECAR was reported in mpH/min. As a metabolic shifter, aconitase inhibitor deferiprone (379409-5G; Sigma-Aldrich) was used.
Lastly, dependency of glycolysis was measured via ECAR.
Dependency of glycolysis in HDF treated with KB1541 decreased regardless of glucose like ATP study (FIGS. 5D and E).

Assay [8] relates to senescent HDF mitochondria. Kind of assay: Transmission electron microscopy of mitochondrial cristae. It is filed as cell-based, human. The source says: FIG. 6 depicts the result of mitochondria recovery induced by KB1541. (A) HDF mitochondria observed in transmission electron microscope 21 days after treated with KB1541. From left: Senescent (DMSO), Senescent (KB1541); (B) the length of cristae observed in transmission electron microscope.
The inventors studied level to cristae of mitochondria 12 days after senescent HDF treatment and identified senescence recovery. […] In graph where the images were quantified and represented, the length of cristae increased when treated with KB1541(FIG. 6B).

With `FC(F)(F)c1ccc(-c2nc3c(N4CCCC4)nc4ccccc4c3o2)cc1` [KB1541], the Autophagy level result in the assay with senescent HDF [1] is listed as “increased”. In the assay on senescent HDF [2], the “Glycolysis portion of ATP production” value was “reduced compared to senescent HDF” and the “Oxphos portion of ATP production” value is “higher than senescent HDF”. Also, the “Relative cell proliferation, rank among screened compounds” value in the assay on senescent HDF cells is on record as “most effective compound on cell proliferation”. In the assay with senescent HDF [3], the Mitochondrial mass result is “decreased”. Also, the “Reactive oxygen species (mitochondrial ROS)” value in the assay with senescent HDF [4] is on record as “decreased in half”. In addition, the “ATP synthase alpha and beta proteins interacting with Myc-14-3-3 zeta/delta(WT)” value in assay [5] is “increased”. Further, the “ATP synthase alpha and beta proteins interacting with Myc-14-3-3 zeta/delta (S58A)” value in assay [6] was “did not change significantly”. In addition, in the assay with senescent HDF [7], the “Dependency of glycolysis (ECAR)” value is “decreased”. The “Folds (cristae) of mitochondria in electron microscope images” value in assay [8] (12 days after treatment) is reported as “restored as well as increased”. For the same compound, the Length of cristae result in assay [8] (quantified TEM images) is reported as “increased”.
